From PubChem BioAssay (NCI)
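GI50 is the concentration that inhibits growth by half. TGI: concentration producing complete growth inhibition.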

Assays:
Test in all cases: inhibition of tumour cell growth, NCI panel, 384-well format
OVCAR-8 ovarian = system: OVCAR-8 ovarian
MDA-MB-468 breast = system: MDA-MB-468 breast
SK-MEL-28 melanoma = system: SK-MEL-28 melanoma
BT-549 breast = system: BT-549 breast
TK-10 renal = system: TK-10 renal
NCI-H23 lung = system: NCI-H23 lung
786-0 renal = system: 786-0 renal
NCI-H322M lung = system: NCI-H322M lung
UACC-62 melanoma = system: UACC-62 melanoma
K-562 leukemia = system: K-562 leukemia
CCRF-CEM leukemia = system: CCRF-CEM leukemia
SK-MEL-5 melanoma = system: SK-MEL-5 melanoma
IGROV1 ovarian = system: IGROV1 ovarian
NCI/ADR-RES ovarian = system: NCI/ADR-RES ovarian
SNB-19 CNS = system: SNB-19 CNS
UO-31 renal = system: UO-31 renal
NCI-H522 lung = system: NCI-H522 lung
RXF 393 renal = system: RXF 393 renal
SN12C renal = system: SN12C renal
DU-145 prostate = system: DU-145 prostate
A549 NSCLC = system: A549 NSCLC
HS 578T breast = system: HS 578T breast
A498 renal = system: A498 renal
LOX IMVI melanoma = system: LOX IMVI melanoma
SF-268 CNS = system: SF-268 CNS
COLO 205 colon = system: COLO 205 colon
SNB-75 CNS = system: SNB-75 CNS
EKVX NSCLC = system: EKVX NSCLC
HL-60(TB) leukemia = system: HL-60(TB) leukemia
MALME-3M melanoma = system: MALME-3M melanoma
MDA-MB-231 breast = system: MDA-MB-231 breast
SK-OV-3 ovarian = system: SK-OV-3 ovarian
HCC-2998 colon = system: HCC-2998 colon
MOLT-4 leukemia = system: MOLT-4 leukemia
HCT-15 colon = system: HCT-15 colon
SW-620 colon = system: SW-620 colon
U251 glioblastoma = system: U251 glioblastoma
M14 melanoma = system: M14 melanoma
OVCAR-5 ovarian = system: OVCAR-5 ovarian
UACC-257 melanoma = system: UACC-257 melanoma
SF-539 CNS = system: SF-539 CNS
OVCAR-4 ovarian = system: OVCAR-4 ovarian
MCF7 breast = system: MCF7 breast
HOP-62 NSCLC = system: HOP-62 NSCLC
RPMI-8226 leukemia = system: RPMI-8226 leukemia
MDA-MB-435 melanoma = system: MDA-MB-435 melanoma
OVCAR-3 ovarian = system: OVCAR-3 ovarian
KM12 colon = system: KM12 colon
NCI-H460 NSCLC = system: NCI-H460 NSCLC

How did the GI50 (OVCAR-8 ovarian) turn out when `CN1CCN(Cc2ccc(Nc3ncc(Cl)c(Nc4ccccc4S(=O)(=O)N(C)C)n3)cc2)CC1` was run?
The GI50 was 0.134 µM.

What about the TGI (OVCAR-8 ovarian) of the same molecule?
Its TGI is 0.42 µM.

What about the GI50 (MDA-MB-468 breast) of the same molecule?
Its GI50 is 0.0419 µM.

What about the TGI (MDA-MB-468 breast) of the same molecule?
Its TGI is 0.151 µM.

And the GI50 (SK-MEL-28 melanoma)?
Its GI50 is 0.133 µM.

And the TGI (SK-MEL-28 melanoma)?
The TGI was 0.274 µM.

What about the GI50 (BT-549 breast) of the same molecule?
The GI50 was 0.117 µM.

What about the TGI (BT-549 breast) of the same molecule?
The TGI was 0.257 µM.

What about the GI50 (TK-10 renal) of the same molecule?
The GI50 was 0.393 µM.

What about the TGI (TK-10 renal) of the same molecule?
Its TGI is 2.88 µM.

What about the GI50 (NCI-H23 lung) of the same molecule?
Its GI50 is 0.0982 µM.

What about the TGI (NCI-H23 lung) of the same molecule?
The TGI was 0.234 µM.

What about the GI50 ([…]-0 renal) of the same molecule?
The GI50 was 0.109 µM.

And the TGI (786-0 renal)?
Its TGI is 1.14 µM.

And the GI50 (NCI-H322M lung)?
Its GI50 is 0.129 µM.

And the TGI (NCI-H322M lung)?
The TGI was 0.351 µM.

What about the GI50 (UACC-62 melanoma) of the same molecule?
Its GI50 is less than 0.01 µM.

What about the TGI (UACC-62 melanoma) of the same molecule?
The TGI was 0.123 µM.

And the GI50 (K-562 leukemia)?
The GI50 was 0.0165 µM.

What about the TGI (K-562 leukemia) of the same molecule?
The TGI was 0.233 µM.

And the GI50 (CCRF-CEM leukemia)?
The GI50 was less than 0.01 µM.

And the TGI (CCRF-CEM leukemia)?
Its TGI is 0.0153 µM.

What about the GI50 (SK-MEL-5 melanoma) of the same molecule?
The GI50 was 0.0292 µM.

And the TGI (SK-MEL-5 melanoma)?
Its TGI is 0.186 µM.

What about the GI50 (IGROV1 ovarian) of the same molecule?
Its GI50 is 0.0626 µM.

And the TGI (IGROV1 ovarian)?
The TGI was 21.2 µM.

What about the GI50 (NCI/ADR-RES ovarian) of the same molecule?
The GI50 was 0.191 µM.

And the TGI (NCI/ADR-RES ovarian)?
Its TGI is 0.481 µM.

And the GI50 (SNB-19 CNS)?
The GI50 was 0.224 µM.

What about the TGI (SNB-19 CNS) of the same molecule?
Its TGI is greater than 100 µM.

What about the GI50 (UO-31 renal) of the same molecule?
Its GI50 is 0.144 µM.

And the TGI (UO-31 renal)?
The TGI was 0.448 µM.

And the GI50 (NCI-H522 lung)?
Its GI50 is less than 0.01 µM.

And the TGI (NCI-H522 lung)?
The TGI was 0.17 µM.

What about the GI50 (RXF 393 renal) of the same molecule?
The GI50 was 0.162 µM.

And the TGI (RXF 393 renal)?
Its TGI is 0.307 µM.

And the GI50 (SN12C renal)?
Its GI50 is 0.14 µM.

What about the TGI (SN12C renal) of the same molecule?
The TGI was 0.358 µM.

What about the GI50 (DU-145 prostate) of the same molecule?
The GI50 was 0.0452 µM.

And the TGI (DU-145 prostate)?
The TGI was 15.5 µM.

And the GI50 (A549 NSCLC)?
Its GI50 is less than 0.01 µM.

And the TGI (A549 NSCLC)?
The TGI was 0.75 µM.

And the GI50 (HS 578T breast)?
Its GI50 is 0.181 µM.

And the TGI (HS 578T breast)?
The TGI was 0.356 µM.

What about the GI50 (A498 renal) of the same molecule?
Its GI50 is 0.136 µM.

What about the TGI (A498 renal) of the same molecule?
The TGI was 0.671 µM.

What about the GI50 (LOX IMVI melanoma) of the same molecule?
The GI50 was 0.0205 µM.

What about the TGI (LOX IMVI melanoma) of the same molecule?
The TGI was 0.201 µM.

What about the GI50 (SF-268 CNS) of the same molecule?
The GI50 was 0.0183 µM.

And the TGI (SF-268 CNS)?
Its TGI is 0.0788 µM.

What about the GI50 (COLO 205 colon) of the same molecule?
Its GI50 is 0.0169 µM.

And the TGI (COLO 205 colon)?
The TGI was 0.128 µM.

And the GI50 (SNB-75 CNS)?
Its GI50 is 0.2 µM.

What about the TGI (SNB-75 CNS) of the same molecule?
Its TGI is 0.363 µM.

And the GI50 (EKVX NSCLC)?
The GI50 was 0.192 µM.

And the TGI (EKVX NSCLC)?
The TGI was 0.478 µM.

What about the GI50 (HL-60(TB) leukemia) of the same molecule?
Its GI50 is less than 0.01 µM.

What about the TGI (HL-60(TB) leukemia) of the same molecule?
The TGI was 0.0173 µM.

And the GI50 (MALME-3M melanoma)?
The GI50 was 0.116 µM.

What about the TGI (MALME-3M melanoma) of the same molecule?
The TGI was 0.252 µM.

What about the GI50 (MDA-MB-231 breast) of the same molecule?
Its GI50 is 0.167 µM.

What about the TGI (MDA-MB-231 breast) of the same molecule?
Its TGI is 1.13 µM.

What about the GI50 (SK-OV-3 ovarian) of the same molecule?
The GI50 was 0.28 µM.

What about the TGI (SK-OV-3 ovarian) of the same molecule?
Its TGI is greater than 100 µM.

What about the GI50 (HCC-2998 colon) of the same molecule?
Its GI50 is 0.032 µM.

And the TGI (HCC-2998 colon)?
Its TGI is 0.251 µM.

And the GI50 (MOLT-4 leukemia)?
Its GI50 is less than 0.01 µM.

And the GI50 (HCT-15 colon)?
The GI50 was 0.0725 µM.

What about the TGI (HCT-15 colon) of the same molecule?
The TGI was 0.371 µM.

What about the GI50 (SW-620 colon) of the same molecule?
Its GI50 is 0.0448 µM.

What about the TGI (SW-620 colon) of the same molecule?
Its TGI is 0.306 µM.

What about the GI50 (U251 glioblastoma) of the same molecule?
The GI50 was 0.146 µM.

What about the TGI (U251 glioblastoma) of the same molecule?
Its TGI is 0.92 µM.

What about the GI50 (M14 melanoma) of the same molecule?
Its GI50 is 0.098 µM.

What about the TGI (M14 melanoma) of the same molecule?
The TGI was 0.235 µM.

What about the GI50 (OVCAR-5 ovarian) of the same molecule?
The GI50 was 0.128 µM.

And the TGI (OVCAR-5 ovarian)?
Its TGI is 0.605 µM.

What about the GI50 (UACC-257 melanoma) of the same molecule?
Its GI50 is 0.111 µM.

And the TGI (UACC-257 melanoma)?
Its TGI is 0.253 µM.

And the GI50 (SF-539 CNS)?
The GI50 was 0.0181 µM.

What about the TGI (SF-539 CNS) of the same molecule?
The TGI was 0.139 µM.

And the GI50 (OVCAR-4 ovarian)?
Its GI50 is 0.299 µM.

And the TGI (OVCAR-4 ovarian)?
The TGI was 0.888 µM.

And the GI50 (MCF7 breast)?
Its GI50 is less than 0.01 µM.

And the TGI (MCF7 breast)?
Its TGI is 1.31 µM.

And the GI50 (HOP-62 NSCLC)?
The GI50 was 0.0208 µM.

And the TGI (HOP-62 NSCLC)?
Its TGI is 0.0736 µM.

What about the GI50 (RPMI-8226 leukemia) of the same molecule?
Its GI50 is less than 0.01 µM.

What about the TGI (RPMI-8226 leukemia) of the same molecule?
Its TGI is 0.0326 µM.

And the GI50 (MDA-MB-435 melanoma)?
The GI50 was 0.149 µM.

What about the TGI (MDA-MB-435 melanoma) of the same molecule?
Its TGI is 0.441 µM.

What about the GI50 (OVCAR-3 ovarian) of the same molecule?
The GI50 was 0.0527 µM.

What about the TGI (OVCAR-3 ovarian) of the same molecule?
The TGI was 0.243 µM.

And the GI50 (KM12 colon)?
The GI50 was 0.0165 µM.

And the TGI (KM12 colon)?
Its TGI is 0.298 µM.

What about the GI50 (NCI-H460 NSCLC) of the same molecule?
The GI50 was less than 0.01 µM.

What about the TGI (NCI-H460 NSCLC) of the same molecule?
The TGI was 0.0109 µM.
